# Legend:
# [1] = test system: BKS. Cg −+Lepr^db/+Lepr^db/Jcl mice; assay: Oral glucose tolerance test, subcutaneous administration (Example 6-5); format: in vivo; settings: 3000 μg/kg sc, AUC up to 2 hours, mean
# Protocol: After 8 weeks old male BKS. Cg −+Lepr^db/+Lepr^db/Jcl mice (Japan CLEA Co. Ltd.) were fasted overnight to 24 hours, the HA-GLP-1 analogue 2 conjugate solution, which was obtained in Example 6-2 and diluted with solvent Z (at a dose as peptide, 300 μg/kg), or solvent Z was subcutaneously administered to the mice. After 6, 24 or 48 hours of the subcutaneous administration, 50% glucose solution (Otsuka Pharamaceutical Co. Ltd.) was orally administered at a dose of 3 g glucose/kg. […] After 2 minutes or 4 hours and 2 minutes of the subcutaneous administration (in the case of solvent Z, after 1 or 5 hours) 50% glucose solution was orally administered at a dose of 3 g glucose/kg. Tests were carried out on groups consisting of 6 mice per group.
# Before the glucose administration (0 hour), 0.5, 1 and 2 hours after the administration, blood was collected from the tail, and the blood glucose level was measured by an enzymatic assay (hexokinase method; Reagent, Autosera S GLU (Daiichi Pure Chemicals Co. Ltd.); Instrument, BioMajesty JCA-BM1250 (JEOL Co. Ltd.)).
# The blood glucose lowering rate was calculated according to the formula described in Example 5-4.
# [2] = in vivo, iv; cited from earlier work
# [3] = test system: BKS. Cg −+Lepr^db/+Lepr^db/Jcl mice; assay: Oral glucose tolerance test, intravenous administration (Example 5-4); format: in vivo; settings: glucose 3 g/kg orally 1 minute later, AUC up to 4 hours, mean
# Protocol: After 8 weeks old male BKS. Cg −+Lepr^db/+Lepr^db/Jcl mice (Japan CLEA Co. Ltd.) were fasted overnight, the HA-GLP-1 analogue 1 conjugate solution, which was obtained in Example 5-2 and diluted with solvent Z (at doses as peptide, 1.5 μg/kg, 15 μg/kg or 150 μg/kg), or solvent Z was intravenously administered to the mice. After 1 minute of the intravenous administration, 50% glucose solution (Otsuka Pharamaceutical Co. Ltd.) was orally administered at a dose of 3 g glucose/kg. […] After 1 minute of the intravenous administration, 50% glucose solution was orally administered at a dose of 3 g glucose/kg. Tests were carried out on groups consisting of 6 mice per group.
# Before the glucose administration (0 hour), 0.5, 1, 2 and 4 hours after the administration, blood was collected from the tail, and the blood glucose level was measured by an enzymatic assay (hexokinase method; Reagent, Autosera S GLU (Daiichi Pure Chemicals Co. Ltd.); Instrument, BioMajesty JCA-BM1250 (JEOL Co. Ltd.)).
# The blood glucose lowering rate was calculated according to the following formula.
Substance,Blood glucose lowering rate (%) ([1]; glucose 3 g/kg orally 2 Minutes after administration),Blood glucose lowering rate (%) ([1]; glucose 3 g/kg orally 4 Hour 2 Minutes after administration),half life [2],Blood glucose lowering rate (%) ([3]; 150 μg/kg iv (conjugate: as peptide)),Blood glucose lowering rate (%) ([3]; 1500 μg/kg iv)
"GLP-1 analogue 0: variant of native GLP-1 (human, 7-37) in which the second (position 8) alanine was converted to glycine (HGEGTFTSDVSSYLEGQAAKEFIAWLVKGRG; Glucagon-like peptide 1(7-37); UniProt P01275 98-128, looked up, variant A8G)",102%,18%,1 to 5 min,–,–
"GLP-1: native GLP-1 (Human, 7-37; Peptide Institute, Inc.)",–,–,–,15%,60%
